Data reported in patent US7834005B2, “Pyrrolobenzodiazepine derivatives, compositions comprising the same and methods related thereto” (The United States of America as represented by the …, priority 2003, dated 2010).

Assays:
[1] = system: standard panel of 12 tumor cell lines; assay: hollow fiber assay; format: in vivo, mice
Description: A standard panel of 12 tumor cell lines was used for the routine hollow fiber screening. These included NCI-H23, NCI-H522, MDA-MB-231, MDA-MB-435, SW-620, COLO 205, LOX, UACC-62, OVCAR-3, OVCAR-5, U251 and SF-295. In addition, alternate lines were used for specialized testing of compounds on a nonroutine basis. The cell lines were cultivated in RPMI-1640 containing 10% FBS and 2 mM glutamine. On the day preceeding hollow fiber preparation, the cells were given a supplementation of fresh medium to maintain log phase growth. For fiber preparation, the cells were harvested by standard trypsinization technique and resuspended at the desired cell density ((2-10×10^6 cells/ml). The cell suspension was flushed into 1 mm (internal diameter) polyvinylidene fluoride hollow fibers with a molecular weight exclusion of 500,000 Da. The hollow fibers were heat-sealed at 2 cm intervals and the samples generated from these seals were placed into tissue culture medium and incubated at 37° C. in 5% CO2 for 24 to 48 hours prior to implantation. A total of 3 different tumor lines were prepared for each experiment so that each mouse receives 3 intraperitoneal implants (1 of each tumor line) and 3 subcutaneous implants (1 of each tumor line). On the day of implantation, samples of each tumor cell line preparation were quantitated for viable cell mass by a stable endpoint MTT assay so that the time zero cell mass is known. Mice were treated with experimental agents starting on day 3 or 4 following fiber implantation and continuing daily for 4 days. Each agent was administered by intraperitoneal injection at 2 dose levels. The fibers were collected from the mice on the day following the fourth compound treatment and subjected to the stable endpoint MTT assay. The optical density of each sample was determined spectrophotometrically at 540 nm and the mean of each treatment group was calculated. The percent net growth for each cell line in each treatment group was calculated and compared to the percent net growth in the vehicle treated controls. A 50% or greater reduction in percent net growth in the treated samples compared to the vehicle control samples was considered a positive result. Each positive result was given a score of 2 and all of the scores were totaled for a given compound. The maximum possible score for an agent is 96 (12 cell lines×2 sites×2 dose levels×2 [score]).

MDA-MB-435 (breastca) = assay: in vivo efficacy, MDA-MB-435 (breastca) subcutaneous tumor model; parameters: species or system athymic mice; details: MDA-MB-435, Early-SC, Q4D X3, 0.45 mg/kg/dose, intravenous
Description: (§1) NSC 694501 was evaluated for in vivo efficacy in athymic mice bearing 8 subcutaneous tumor models: LOX and UACC-62 (melanoma), OVCAR-3 and OVCAR-5 (ovarian ca), MDA-MB-435 (breastca), SF-295 and C-6 (glioma), and LS-174T (colonca). The models were selected on the basis of hollow fiber assays and in vitro time course assays.
(§2) A qDx5 schedule conferred better efficacy than a q4Dx3 schedule in each of the 4 models tested on two schedules. NSC 694501 was active over a wide dosage range in athymic mice using compound prepared fresh just prior to injection in 1% EtOH vehicle: On a qDx5 schedule, the maximum tolerated dose was approximately 120 μg/kg/dose and the minimum effective dose in one of the most sensitive models (SF-295) was 16 μg/kg/dose.

[2] = as above; parameters: species or system athymic mice; details: athymic, mouse, in vivo; MDA-MB-435, Early-SC, Q4D X3, intravenous
Description: as §1, §2

LOX (melanoma) = assay: in vivo efficacy, LOX (melanoma) tumor model; parameters: species or system athymic mice; details: intravenous
Description: as §1, §2

[3] = in vivo efficacy, LOX (melanoma) tumor model; parameters: species or system athymic mice; details: athymic, mouse, in vivo, intravenous, QD X5, intravenous
Description: as §1, §2

[4] = in vivo efficacy, OVCAR-5 (ovarian ca) subcutaneous tumor model; parameters: species or system athymic mice; details: athymic, mouse, in vivo, OVCAR-5, Early-SC
Description: as §1, §2

OVCAR-5 (ovarian ca) = assay: as above; parameters: species or system athymic mice; details: OVCAR-5, Early-SC, intravenous
Description: as §1, §2

[5] = Early-SC, QD X5, 0.054 mg/kg/dose

## C=C1C[C@H]2C=Nc3cc(OCCCOc4cc5c(cc4OC)C(=O)N4CC(=C)C[C@H]4C=N5)c(OC)cc3C(=O)N2C1 [NSC 694501]
[1]; hollow fiber assay
  cell lines killed: three cell lines killed: UACC-62 melanoma, OVCAR-3 ovarian cancer, and MDA-MB-435 breast cancer
[1]; intraperitoneal implants
  hollow fiber assay score, intraperitoneal [i.p.]: 40
[1]; ip + sc, maximum possible score 96
  hollow fiber assay total score: 54
[1]; subcutaneous implants
  hollow fiber assay score, subcutaneous [s.c.]: 14
MDA-MB-435 (breastca)
  BW Loss: 19.8%
  Growth Delay % [(T − C)/C]: 41%
  Optimal % T/C: 3%
  tumor free (tf): 1 tf
[2]
  MTD at 9 days: 0.45 mg/kg
LOX (melanoma); [5]
  BW Loss: 17.6%
  Growth Delay % [(T − C)/C]: 498%
  Optimal % T/C: 7%
  value in parentheses in Growth Delay column: 4.3 L
LOX (melanoma); IP, QD X5, 0.40 mg/kg/dose
  BW Loss: 20.7%
  ILS: [−10% ILS]
[3]; Early-SC
  MTD at 5 days: 0.054 mg/kg
[3]; IP
  MTD at 5 days: 0.4 mg/kg
[4]; Q4D X3, intravenous
  MTD at 9 days: 0.45 mg/kg
[4]; QD X5, intravenous
  MTD at 5 days: 0.081 mg/kg
OVCAR-5 (ovarian ca); Q4D X3, 0.45 mg/kg/dose
  BW Loss: 21.2%
  Growth Delay % [(T − C)/C]: 32%
  Optimal % T/C: 38%
OVCAR-5 (ovarian ca); QD X5, 0.081 mg/kg/dose
  BW Loss: 2.6%
  Growth Delay % [(T − C)/C]: 102%
  Optimal % T/C: 13%
